The source of these data is patent publication US20070099983A1, “Aminocyclohexyl ether compounds and uses thereof” (Cardiome Pharma Corp., priority 2003, published 2007).

Data set [1] relates to conscious rats. Briefly: Determination of CNS toxicity: convulsions in conscious rats on increasing i.v. infusion. The settings on record: rat, in vivo; for convulsion dose: iv. The format is in vivo.
Data set [2] concerns sustained AF maintained during continuous vagal nerve stimulation. Briefly: Canine vagal-AF model: termination of sustained AF. The format is in vivo, dog. Particulars: IV, anesthetized dogs. The method, then:
St.-Georges et al., 1997). Dogs are ventilated mechanically with room air supplemented with oxygen via an endotracheal tube at 20 to 25 breaths/minute with a tidal volume obtained from a monogram. […] Catheters are inserted into the femoral artery for blood pressure recording and blood gas measurement, and into both femoral veins for drug administration and venous sampling. […] Body temperature is maintained at 37-40° C. with a heating blanket. The heart is exposed via a medial thoracotomy and a pericardial cradle is created. […] Drug effects to terminate sustained AF maintained during continuous vagal nerve stimulation are assessed. […] The vagal stimulation voltage is adjusted under control conditions, and then readjusted after each treatment to maintain the same bradycardic effect. […] Diastolic threshold and ERP are determined in duplicate and averaged to give a single value. […] The interval between the stimulus artefact and the peak of the local electrogram is measured as an index of conduction velocity. […] The stimulus voltage-heart rate relationship for vagal nerve stimulation is determined under control conditions in most experiments. […] After the termination of AF, the diastolic threshold and ERP of the atrium and ventricle are determined. […] Group data are expressed as the mean±SEM. […]

As to `c1ccc2cc(CCO[C@H]3CCCCC3N3CCOCC3)ccc2c1` (stereo partly drawn) [Compound 30, (1R,2R)/(1S,2S)-[2-(4-morpholinyl)-1-(2-naphthenethoxy)]-cyclohexane], in data set [1], the cum conv dose stood at 85 µmol/kg and the convulsion dose amounted to 13.3 µmol/kg/min.

In data set [1], `c1ccc2c(CCO[C@H]3CCCCC3N3CCOCC3)cccc2c1` (stereo partly drawn) [Compound 31, (1R,2R)/(1S,2S)-[2-(4-morpholinyl)-1-(1-naphthenethoxy)]-cyclohexane] yielded a cum conv dose of 93 µmol/kg and a convulsion dose of 16 µmol/kg/min.

In data set [1], `Brc1ccc(CCO[C@H]2CCCCC2N2CCOCC2)cc1` (stereo partly shown) [Compound 32] came in with a cum conv dose of 91 µmol/kg and a convulsion dose of 12 µmol/kg/min.

In data set [1], `c1ccc2cc(OCCO[C@H]3CCCCC3N3CCOCC3)ccc2c1` (stereo partly drawn) [Compound 33, (1R,2R)/(1S,2S)-[2-(4-morpholinyl)-1-[2-(2-naphthoxy)ethoxy]]-cyclohexane] showed a cum conv dose of 61.63 µmol/kg and a convulsion dose of 8 µmol/kg/min.

In data set [1], `Brc1ccc(OCCO[C@H]2CCCCC2N2CCOCC2)cc1` (stereo partly drawn) [Compound 34, (1R,2R)/(1S,2S)-[2-(4-morpholinyl)-1-[2-(4-bromophenoxy)-ethoxy]]cyclohexane] yielded a cum conv dose of 83 µmol/kg and a convulsion dose of 10.7 µmol/kg/min.

`COc1ccc(CCO[C@H]2CCCCC2N2CCOCC2)cc1OC` (stereo partly drawn) [Compound 35, (1R,2R)/(1S,2S)-[2-(4-morpholinyl)-1-(3,4-dimethoxy-phenethoxy)]-cyclohexane]: in data set [1], the cum conv dose stood at 113 µmol/kg and the convulsion dose was determined as 16 µmol/kg/min.

Consider `c1ccc2c(CCO[C@H]3CCCCC3N3CCOCC3)csc2c1` (stereo partly shown) [Compound 36], for which, in data set [1], the cum conv dose stood at 65 µmol/kg and the convulsion dose came out at 8 µmol/kg/min.

In data set [1], `c1cc(CCO[C@H]2CCCCC2N2CCOCC2)c2ccsc2c1` (stereo partly shown) [Compound 37] came in with a cum conv dose of 54 µmol/kg and a convulsion dose of 8 µmol/kg/min.

As to `Brc1cccc(CCO[C@H]2CCCCC2N2CCOCC2)c1` (stereo partly drawn) [Compound 38, (1R,2R)/(1S,2S)-[2-(4-morpholinyl)-1-(3-bromophenethoxy)]-cyclohexane], in data set [1], the cum conv dose came out at 131 µmol/kg and the convulsion dose was 16 µmol/kg/min.

On to `Brc1ccccc1CCO[C@H]1CCCCC1N1CCOCC1` (stereo partly drawn) [Compound 39, (1R,2R)/(1S,2S)-[2-(4-morpholinyl)-1-(2-bromophenethoxy)]-cyclohexane], for which, in data set [1], the cum conv dose turned out to be 125 µmol/kg and the convulsion dose worked out at 16 µmol/kg/min.

In data set [1], `Clc1ccc(CCO[C@H]2CCCCC2N2CCOCC2)cc1Cl` (stereo partly drawn) [Compound 40, (1R,2R)/(1S,2S)-2-(4-morpholinyl)-1-(3,4-dichlorophenethoxy) cyclohexane] showed a cum conv dose of 118 µmol/kg and a convulsion dose of 16 µmol/kg/min.

`Cl.O=C1CCN(C2CCCC[C@@H]2OCCc2c(Cl)cccc2Cl)C1` (stereo partly drawn) [Compound 41, (1R,2R)/(1S,2S)-2-(3-ketopyrrolidinyl)-1-(2,6-dichlorophenethoxy) cyclohexane monohydrochloride]: in data set [1], the cum conv dose came out at 190 µmol/kg and the convulsion dose worked out at 32 µmol/kg/min.

In data set [1], `CC(=O)OC1CCN([C@@H]2CCCCC2OCCc2cccc3ccccc23)C1.Cl` (stereo partly drawn) [Compound 43, (1R,2R)/(1S,2S)-2-(3-acetoxypyrrolidinyl)-1-(1-naphthenethoxy)cyclo hexane monohydrochloride] yielded a cum conv dose of 65 µmol/kg and a convulsion dose of 8 µmol/kg/min.

Turning to `Cl.Clc1cccc(Cl)c1COC1CCCC[C@H]1N1CCOCC1` (stereo partly drawn) [Compound 44, (1R,2R)/(1S,2S)-2-(4-morpholinyl)-1-[(2,6-dichlorophenyl)methoxy]cyclohexane monohydrochloride], in data set [1], the cum conv dose is 97 µmol/kg and the convulsion dose amounted to 16 µmol/kg/min.

In data set [1], `Cl.O=C1CCN([C@@H]2CCCCC2OCc2c(Cl)cccc2Cl)C1` (stereo partly drawn) [Compound 45, (1R,2R)/(1S,2S)-2-(3-ketopyrrolidinyl)-1-[(2,6-dichlorophenyl)methoxy]cyclohexane monohydrochloride] showed a cum conv dose of 214 µmol/kg and a convulsion dose of 32 µmol/kg/min.

Compound `Cl.OC1CCN(C2CCCC[C@@H]2OCCc2c(Cl)cccc2Cl)C1` (stereo partly drawn) [Compound 46, (1R,2R)/(1S,2S)-2-(3-hydroxypyrrolidinyl)-1-(2,6-dichlorophenethoxy) cyclohexane monohydrochloride] yielded a cum conv dose in data set [1] of 65 µmol/kg.

For `Cl.O=C1CCN(C2CCCC[C@@H]2OCC(c2ccccc2)c2ccccc2)C1` (stereo partly drawn) [Compound 47, (1R,2R)/(1S,2S)-2-(3-ketopyrrolidinyl)-1-(2,2-diphenylethoxy)cyclo hexane monohydrochloride], in data set [1], the cum conv dose was found to be 155 µmol/kg and the convulsion dose amounted to 21 µmol/kg/min.

In data set [1], `Cl.Clc1cccc(Cl)c1CCOC1CCCC[C@H]1N1CCSC1` (stereo partly drawn) [Compound 48, (1R,2R)/(1S,2S)-2-(3-thiazolidinyl)-1-(2,6-dichlorophenethoxy) cyclohexane monohydrochloride] returned a cum conv dose of 331 µmol/kg and a convulsion dose of 43 µmol/kg/min.

With `O=C(NCC1CCCCN1)c1cc(OCC(F)(F)F)ccc1OCC(F)(F)F` (stereo not shown) [Flecainide], the “Median dose required for termination of AF” value in data set [2] amounted to 2.5 µmol/kg. The “Mean dose required for termination of AF” value in data set [2] (mean±EM) is 4 ± 2 µmol/kg.
